Numbers after ± are expanded uncertainties.
Assay: xn = mol fraction of the nth substance listed
Details: Liquid, Falling body viscometer

COCCOCCOCCOCCOC [2,5,8,11,14-pentaoxapentadecane] + FCC(F)(F)F
viscosity (293.15 K, 10000 kPa, x2 = 0.2769): 3.132 ± 0.044 mPa·s
viscosity (293.15 K, 10000 kPa, x2 = 0.4433): 2.335 ± 0.032 mPa·s
viscosity (293.15 K, 10000 kPa, x2 = 0.6333): 1.514 ± 0.02 mPa·s
viscosity (293.15 K, 10000 kPa, x2 = 0.8797): 0.557 ± 0.007 mPa·s
viscosity (293.15 K, 20000 kPa, x2 = 0.2769): 3.378 ± 0.047 mPa·s
viscosity (293.15 K, 20000 kPa, x2 = 0.4433): 2.537 ± 0.035 mPa·s
viscosity (293.15 K, 20000 kPa, x2 = 0.6333): 1.679 ± 0.022 mPa·s
viscosity (293.15 K, 20000 kPa, x2 = 0.8797): 0.613 ± 0.007 mPa·s
viscosity (293.15 K, 30000 kPa, x2 = 0.2769): 3.669 ± 0.051 mPa·s
viscosity (293.15 K, 30000 kPa, x2 = 0.4433): 2.765 ± 0.038 mPa·s
viscosity (293.15 K, 30000 kPa, x2 = 0.6333): 1.851 ± 0.024 mPa·s
viscosity (293.15 K, 30000 kPa, x2 = 0.8797): 0.671 ± 0.008 mPa·s
viscosity (293.15 K, 40000 kPa, x2 = 0.2769): 3.992 ± 0.055 mPa·s
viscosity (293.15 K, 40000 kPa, x2 = 0.4433): 3.014 ± 0.041 mPa·s
viscosity (293.15 K, 40000 kPa, x2 = 0.6333): 2.031 ± 0.027 mPa·s
viscosity (293.15 K, 40000 kPa, x2 = 0.8797): 0.733 ± 0.009 mPa·s
viscosity (293.15 K, 50000 kPa, x2 = 0.2769): 4.341 ± 0.06 mPa·s
viscosity (293.15 K, 50000 kPa, x2 = 0.4433): 3.282 ± 0.045 mPa·s
viscosity (293.15 K, 50000 kPa, x2 = 0.6333): 2.219 ± 0.029 mPa·s
viscosity (293.15 K, 50000 kPa, x2 = 0.8797): 0.796 ± 0.01 mPa·s
viscosity (293.15 K, 60000 kPa, x2 = 0.2769): 4.71 ± 0.066 mPa·s
viscosity (293.15 K, 60000 kPa, x2 = 0.4433): 3.568 ± 0.049 mPa·s
viscosity (293.15 K, 60000 kPa, x2 = 0.6333): 2.414 ± 0.032 mPa·s
viscosity (293.15 K, 60000 kPa, x2 = 0.8797): 0.863 ± 0.01 mPa·s
viscosity (293.15 K, 70000 kPa, x2 = 0.2769): 5.095 ± 0.071 mPa·s
viscosity (293.15 K, 70000 kPa, x2 = 0.4433): 3.871 ± 0.054 mPa·s
viscosity (293.15 K, 70000 kPa, x2 = 0.6333): 2.617 ± 0.035 mPa·s
viscosity (293.15 K, 70000 kPa, x2 = 0.8797): 0.932 ± 0.011 mPa·s
viscosity (293.15 K, 80000 kPa, x2 = 0.2769): 5.495 ± 0.077 mPa·s
viscosity (293.15 K, 80000 kPa, x2 = 0.4433): 4.191 ± 0.058 mPa·s
viscosity (293.15 K, 80000 kPa, x2 = 0.6333): 2.827 ± 0.037 mPa·s
viscosity (293.15 K, 80000 kPa, x2 = 0.8797): 1.003 ± 0.012 mPa·s
viscosity (293.15 K, 90000 kPa, x2 = 0.2769): 5.907 ± 0.082 mPa·s
viscosity (293.15 K, 90000 kPa, x2 = 0.4433): 4.527 ± 0.063 mPa·s
viscosity (293.15 K, 90000 kPa, x2 = 0.6333): 3.045 ± 0.04 mPa·s
viscosity (293.15 K, 90000 kPa, x2 = 0.8797): 1.077 ± 0.013 mPa·s
viscosity (293.15 K, 100000 kPa, x2 = 0.2769): 6.329 ± 0.088 mPa·s
viscosity (293.15 K, 100000 kPa, x2 = 0.4433): 4.877 ± 0.068 mPa·s
viscosity (293.15 K, 100000 kPa, x2 = 0.6333): 3.269 ± 0.043 mPa·s
viscosity (293.15 K, 100000 kPa, x2 = 0.8797): 1.154 ± 0.014 mPa·s
viscosity (313.15 K, 10000 kPa, x2 = 0.2769): 2.001 ± 0.03 mPa·s
viscosity (313.15 K, 10000 kPa, x2 = 0.4433): 1.527 ± 0.022 mPa·s
viscosity (313.15 K, 10000 kPa, x2 = 0.6333): 1.046 ± 0.014 mPa·s
viscosity (313.15 K, 10000 kPa, x2 = 0.8797): 0.412 ± 0.005 mPa·s
viscosity (313.15 K, 20000 kPa, x2 = 0.2769): 2.197 ± 0.033 mPa·s
viscosity (313.15 K, 20000 kPa, x2 = 0.4433): 1.674 ± 0.024 mPa·s
viscosity (313.15 K, 20000 kPa, x2 = 0.6333): 1.151 ± 0.016 mPa·s
viscosity (313.15 K, 20000 kPa, x2 = 0.8797): 0.46 ± 0.006 mPa·s
viscosity (313.15 K, 30000 kPa, x2 = 0.2769): 2.395 ± 0.036 mPa·s
viscosity (313.15 K, 30000 kPa, x2 = 0.4433): 1.824 ± 0.027 mPa·s
viscosity (313.15 K, 30000 kPa, x2 = 0.6333): 1.26 ± 0.017 mPa·s
viscosity (313.15 K, 30000 kPa, x2 = 0.8797): 0.506 ± 0.006 mPa·s
viscosity (313.15 K, 40000 kPa, x2 = 0.2769): 2.601 ± 0.039 mPa·s
viscosity (313.15 K, 40000 kPa, x2 = 0.4433): 1.978 ± 0.029 mPa·s
viscosity (313.15 K, 40000 kPa, x2 = 0.6333): 1.374 ± 0.019 mPa·s
viscosity (313.15 K, 40000 kPa, x2 = 0.8797): 0.553 ± 0.007 mPa·s
viscosity (313.15 K, 50000 kPa, x2 = 0.2769): 2.816 ± 0.043 mPa·s
viscosity (313.15 K, 50000 kPa, x2 = 0.4433): 2.14 ± 0.032 mPa·s
viscosity (313.15 K, 50000 kPa, x2 = 0.6333): 1.493 ± 0.021 mPa·s
viscosity (313.15 K, 50000 kPa, x2 = 0.8797): 0.6 ± 0.007 mPa·s
viscosity (313.15 K, 60000 kPa, x2 = 0.2769): 3.043 ± 0.046 mPa·s
viscosity (313.15 K, 60000 kPa, x2 = 0.4433): 2.31 ± 0.034 mPa·s
viscosity (313.15 K, 60000 kPa, x2 = 0.6333): 1.616 ± 0.023 mPa·s
viscosity (313.15 K, 60000 kPa, x2 = 0.8797): 0.647 ± 0.008 mPa·s
viscosity (313.15 K, 70000 kPa, x2 = 0.2769): 3.282 ± 0.05 mPa·s
viscosity (313.15 K, 70000 kPa, x2 = 0.4433): 2.49 ± 0.037 mPa·s
viscosity (313.15 K, 70000 kPa, x2 = 0.6333): 1.745 ± 0.025 mPa·s
viscosity (313.15 K, 70000 kPa, x2 = 0.8797): 0.695 ± 0.009 mPa·s
viscosity (313.15 K, 80000 kPa, x2 = 0.2769): 3.535 ± 0.054 mPa·s
viscosity (313.15 K, 80000 kPa, x2 = 0.4433): 2.68 ± 0.041 mPa·s
viscosity (313.15 K, 80000 kPa, x2 = 0.6333): 1.878 ± 0.027 mPa·s
viscosity (313.15 K, 80000 kPa, x2 = 0.8797): 0.744 ± 0.009 mPa·s
viscosity (313.15 K, 90000 kPa, x2 = 0.2769): 3.803 ± 0.059 mPa·s
viscosity (313.15 K, 90000 kPa, x2 = 0.4433): 2.881 ± 0.044 mPa·s
viscosity (313.15 K, 90000 kPa, x2 = 0.6333): 2.016 ± 0.029 mPa·s
viscosity (313.15 K, 90000 kPa, x2 = 0.8797): 0.794 ± 0.01 mPa·s
viscosity (313.15 K, 100000 kPa, x2 = 0.2769): 4.088 ± 0.063 mPa·s
viscosity (313.15 K, 100000 kPa, x2 = 0.4433): 3.094 ± 0.048 mPa·s
viscosity (313.15 K, 100000 kPa, x2 = 0.6333): 2.159 ± 0.031 mPa·s
viscosity (313.15 K, 100000 kPa, x2 = 0.8797): 0.845 ± 0.011 mPa·s
viscosity (333.15 K, 10000 kPa, x2 = 0.2769): 1.406 ± 0.019 mPa·s
viscosity (333.15 K, 10000 kPa, x2 = 0.4433): 1.097 ± 0.014 mPa·s
viscosity (333.15 K, 10000 kPa, x2 = 0.6333): 0.774 ± 0.01 mPa·s
viscosity (333.15 K, 10000 kPa, x2 = 0.8797): 0.321 ± 0.004 mPa·s
viscosity (333.15 K, 20000 kPa, x2 = 0.2769): 1.533 ± 0.021 mPa·s
viscosity (333.15 K, 20000 kPa, x2 = 0.4433): 1.195 ± 0.016 mPa·s
viscosity (333.15 K, 20000 kPa, x2 = 0.6333): 0.845 ± 0.011 mPa·s
viscosity (333.15 K, 20000 kPa, x2 = 0.8797): 0.364 ± 0.004 mPa·s
viscosity (333.15 K, 30000 kPa, x2 = 0.2769): 1.664 ± 0.023 mPa·s
viscosity (333.15 K, 30000 kPa, x2 = 0.4433): 1.297 ± 0.017 mPa·s
viscosity (333.15 K, 30000 kPa, x2 = 0.6333): 0.922 ± 0.012 mPa·s
viscosity (333.15 K, 30000 kPa, x2 = 0.8797): 0.405 ± 0.005 mPa·s
viscosity (333.15 K, 40000 kPa, x2 = 0.2769): 1.8 ± 0.025 mPa·s
viscosity (333.15 K, 40000 kPa, x2 = 0.4433): 1.402 ± 0.019 mPa·s
viscosity (333.15 K, 40000 kPa, x2 = 0.6333): 1.003 ± 0.013 mPa·s
viscosity (333.15 K, 40000 kPa, x2 = 0.8797): 0.444 ± 0.005 mPa·s
viscosity (333.15 K, 50000 kPa, x2 = 0.2769): 1.941 ± 0.027 mPa·s
viscosity (333.15 K, 50000 kPa, x2 = 0.4433): 1.512 ± 0.02 mPa·s
viscosity (333.15 K, 50000 kPa, x2 = 0.6333): 1.087 ± 0.014 mPa·s
viscosity (333.15 K, 50000 kPa, x2 = 0.8797): 0.483 ± 0.006 mPa·s

Source: the NIST ThermoML archive (doi:10.1016/j.fluid.2005.03.030)
